Measurements as given in PubChem BioAssay (NCI).
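Exposure lasted 48 hours, with cells grown in 96-well plates and compounds tested at five concentrations. GI50 marks 50% less growth. Definition used: TGI = concentration required for complete inhibition of growth.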

What was measured:
Assay in all cases: growth of human tumour cells (NCI), 48 h
OVCAR-3 ovarian = test system: OVCAR-3 ovarian
NCI-H226 lung = test system: NCI-H226 lung
MALME-3M melanoma = test system: MALME-3M melanoma
UO-31 renal = test system: UO-31 renal
SF-268 CNS = test system: SF-268 CNS
SNB-19 CNS = test system: SNB-19 CNS
HOP-62 NSCLC = test system: HOP-62 NSCLC
OVCAR-5 ovarian = test system: OVCAR-5 ovarian
A498 renal = test system: A498 renal
A549 NSCLC = test system: A549 NSCLC
RXF 393 renal = test system: RXF 393 renal
HL-60(TB) leukemia = test system: HL-60(TB) leukemia
HT29 colon = test system: HT29 colon
M14 melanoma = test system: M14 melanoma
T-47D breast = test system: T-47D breast
NCI/ADR-RES ovarian = test system: NCI/ADR-RES ovarian
COLO 205 colon = test system: COLO 205 colon
TK-10 renal = test system: TK-10 renal
SR leukemia = test system: SR leukemia
HCT-15 colon = test system: HCT-15 colon
PC-3 prostate = test system: PC-3 prostate
NCI-H23 lung = test system: NCI-H23 lung
SK-MEL-2 melanoma = test system: SK-MEL-2 melanoma
SW-620 colon = test system: SW-620 colon
ACHN renal = test system: ACHN renal
HOP-92 NSCLC = test system: HOP-92 NSCLC
SN12C renal = test system: SN12C renal
SK-OV-3 ovarian = test system: SK-OV-3 ovarian
SK-MEL-5 melanoma = test system: SK-MEL-5 melanoma
KM12 colon = test system: KM12 colon
HCT-116 colon = test system: HCT-116 colon
BT-549 breast = test system: BT-549 breast
CAKI-1 renal = test system: CAKI-1 renal
K-562 leukemia = test system: K-562 leukemia
EKVX NSCLC = test system: EKVX NSCLC
RPMI-8226 leukemia = test system: RPMI-8226 leukemia
MDA-MB-435 = test system: MDA-MB-435
HCC-2998 colon = test system: HCC-2998 colon
786-0 renal = test system: 786-0 renal
HS 578T breast = test system: HS 578T breast
U251 CNS = test system: U251 CNS
MOLT-4 leukemia = test system: MOLT-4 leukemia
NCI-H460 lung = test system: NCI-H460 lung
OVCAR-8 ovarian = test system: OVCAR-8 ovarian
SF-295 CNS = test system: SF-295 CNS
SF-539 CNS = test system: SF-539 CNS
UACC-257 melanoma = test system: UACC-257 melanoma
SK-MEL-28 melanoma = test system: SK-MEL-28 melanoma
CCRF-CEM leukemia = test system: CCRF-CEM leukemia
MDA-MB-468 breast = test system: MDA-MB-468 breast
IGROV1 ovarian = test system: IGROV1 ovarian
NCI-H522 lung = test system: NCI-H522 lung
SNB-75 CNS = test system: SNB-75 CNS
MDA-MB-231 breast = test system: MDA-MB-231 breast
DU-145 prostate = test system: DU-145 prostate
OVCAR-4 ovarian = test system: OVCAR-4 ovarian
MCF7 breast = test system: MCF7 breast
UACC-62 melanoma = test system: UACC-62 melanoma
LOX IMVI melanoma = test system: LOX IMVI melanoma

## C[C@@H](Nc1c(C#N)cnc2ccc(-c3cnc4[nH]ncc4c3)cc12)c1ccccc1
OVCAR-3 ovarian
  GI50: 2140 nM
  TGI: 11900 nM
NCI-H226 lung
  GI50: 2850 nM
  TGI: 14300 nM
MALME-3M melanoma
  GI50: 1160 nM
  TGI: 7270 nM
UO-31 renal
  GI50: 468 nM
  TGI: 10800 nM
SF-268 CNS
  GI50: 3560 nM
  TGI: 34000 nM
SNB-19 CNS
  GI50: 2480 nM
  TGI: 28000 nM
HOP-62 NSCLC
  GI50: 3030 nM
  TGI: 19000 nM
OVCAR-5 ovarian
  GI50: 3890 nM
  TGI: 18300 nM
A498 renal
  GI50: 2550 nM
  TGI: 6800 nM
A549 NSCLC
  GI50: 2530 nM
  TGI: 10900 nM
RXF 393 renal
  GI50: 1260 nM
  TGI: 3550 nM
HL-60(TB) leukemia
  GI50: 1740 nM
  TGI: 7980 nM
HT29 colon
  GI50: 14500 nM
  TGI: 35200 nM
M14 melanoma
  GI50: 2430 nM
  TGI: 19100 nM
T-47D breast
  GI50: 2880 nM
  TGI: 8360 nM
NCI/ADR-RES ovarian
  GI50: 3710 nM
  TGI: 34800 nM
COLO 205 colon
  GI50: 16300 nM
  TGI: 37000 nM
TK-10 renal
  GI50: 2960 nM
  TGI: 8360 nM
SR leukemia
  GI50: 2230 nM
  TGI: 19700 nM
HCT-15 colon
  GI50: 3170 nM
  TGI: 16400 nM
PC-3 prostate
  GI50: 2580 nM
  TGI: > 100000 nM
NCI-H23 lung
  GI50: 4310 nM
  TGI: 22000 nM
SK-MEL-2 melanoma
  GI50: 3230 nM
  TGI: 16000 nM
SW-620 colon
  GI50: 4650 nM
  TGI: 23200 nM
ACHN renal
  GI50: 699 nM
  TGI: 11300 nM
HOP-92 NSCLC
  GI50: 1080 nM
  TGI: 7290 nM
SN12C renal
  GI50: 1570 nM
  TGI: 12800 nM
SK-OV-3 ovarian
  GI50: 2160 nM
  TGI: 7980 nM
SK-MEL-5 melanoma
  GI50: 1710 nM
  TGI: 5960 nM
KM12 colon
  GI50: 4200 nM
  TGI: 21500 nM
HCT-116 colon
  GI50: 3770 nM
  TGI: 16100 nM
BT-549 breast
  GI50: 353 nM
  TGI: 4830 nM
CAKI-1 renal
  GI50: 2780 nM
  TGI: 10900 nM
K-562 leukemia
  GI50: 4670 nM
  TGI: > 100000 nM
EKVX NSCLC
  GI50: 827 nM
  TGI: 4450 nM
RPMI-8226 leukemia
  GI50: 2040 nM
  TGI: 11300 nM
MDA-MB-435
  GI50: 3500 nM
  TGI: 19500 nM
HCC-2998 colon
  GI50: 4690 nM
  TGI: 26000 nM
786-0 renal
  GI50: 2740 nM
  TGI: 11300 nM
HS 578T breast
  GI50: 1270 nM
  TGI: 5370 nM
U251 CNS
  GI50: 4910 nM
  TGI: 22700 nM
MOLT-4 leukemia
  GI50: 1610 nM
  TGI: 5020 nM
NCI-H460 lung
  GI50: 2660 nM
  TGI: 13200 nM
OVCAR-8 ovarian
  GI50: 2330 nM
  TGI: 23500 nM
SF-295 CNS
  GI50: 2110 nM
  TGI: 10500 nM
SF-539 CNS
  GI50: 2590 nM
  TGI: 12200 nM
UACC-257 melanoma
  GI50: 3240 nM
  TGI: 16300 nM
SK-MEL-28 melanoma
  GI50: 2060 nM
  TGI: 14400 nM
CCRF-CEM leukemia
  GI50: 2460 nM
  TGI: > 100000 nM
MDA-MB-468 breast
  GI50: 1160 nM
  TGI: 2670 nM
IGROV1 ovarian
  GI50: 1910 nM
  TGI: 4070 nM
NCI-H522 lung
  GI50: 1710 nM
  TGI: 11600 nM
SNB-75 CNS
  GI50: 1100 nM
  TGI: 5160 nM
MDA-MB-231 breast
  GI50: 2380 nM
  TGI: 13800 nM
DU-145 prostate
  GI50: 2760 nM
  TGI: 25200 nM
OVCAR-4 ovarian
  GI50: 3470 nM
  TGI: 18000 nM
MCF7 breast
  GI50: 1870 nM
  TGI: 7810 nM
UACC-62 melanoma
  GI50: 1940 nM
  TGI: 5860 nM
LOX IMVI melanoma
  GI50: 3120 nM
  TGI: 16700 nM

## N#Cc1c(NC(=O)c2ccc(C(F)(F)F)cc2C(F)(F)F)sc2c1CCC(=O)C2
OVCAR-3 ovarian
  GI50: 360 nM
  TGI: 1370 nM
NCI-H226 lung
  GI50: 2240 nM
  TGI: 6810 nM
MALME-3M melanoma
  GI50: 369 nM
  TGI: 1450 nM
UO-31 renal
  GI50: 339 nM
  TGI: 1310 nM
SF-268 CNS
  GI50: 2820 nM
  TGI: 13200 nM
SNB-19 CNS
  GI50: 3690 nM
  TGI: 14100 nM
HOP-62 NSCLC
  GI50: 3450 nM
  TGI: 14000 nM
OVCAR-5 ovarian
  GI50: 1040 nM
  TGI: 2670 nM
A498 renal
  GI50: 13000 nM
  TGI: 28100 nM
A549 NSCLC
  GI50: 3290 nM
  TGI: 30000 nM
RXF 393 renal
  GI50: 293 nM
  TGI: 1270 nM
HL-60(TB) leukemia
  GI50: 235 nM
  TGI: 3270 nM
HT29 colon
  GI50: 542 nM
  TGI: 2950 nM
M14 melanoma
  GI50: 901 nM
  TGI: 2840 nM
T-47D breast
  GI50: 358 nM
  TGI: 2960 nM
NCI/ADR-RES ovarian
  GI50: 623 nM
  TGI: 7140 nM
COLO 205 colon
  GI50: 1310 nM
  TGI: 2720 nM
TK-10 renal
  GI50: 367 nM
  TGI: 2190 nM
SR leukemia
  GI50: 303 nM
  TGI: > 100000 nM
HCT-15 colon
  GI50: 335 nM
  TGI: 1390 nM
PC-3 prostate
  GI50: 249 nM
  TGI: 2360 nM
NCI-H23 lung
  GI50: 431 nM
  TGI: 2280 nM
SK-MEL-2 melanoma
  GI50: 2230 nM
  TGI: 4550 nM
SW-620 colon
  GI50: 363 nM
  TGI: 1610 nM
ACHN renal
  GI50: 331 nM
  TGI: 1180 nM
HOP-92 NSCLC
  GI50: 234 nM
  TGI: 770 nM
SN12C renal
  GI50: 675 nM
  TGI: 11100 nM
SK-OV-3 ovarian
  GI50: 2660 nM
  TGI: 7230 nM
SK-MEL-5 melanoma
  GI50: 804 nM
  TGI: 2080 nM
KM12 colon
  GI50: 468 nM
  TGI: 2330 nM
HCT-116 colon
  GI50: 345 nM
  TGI: 6640 nM
BT-549 breast
  GI50: 309 nM
  TGI: 1110 nM
CAKI-1 renal
  GI50: 610 nM
  TGI: 2120 nM
K-562 leukemia
  GI50: 275 nM
  TGI: > 40200 nM
EKVX NSCLC
  GI50: 1650 nM
  TGI: 7840 nM
RPMI-8226 leukemia
  GI50: 209 nM
  TGI: 4110 nM
MDA-MB-435
  GI50: 888 nM
  TGI: 2980 nM
HCC-2998 colon
  GI50: 1660 nM
  TGI: 5600 nM
786-0 renal
  GI50: 442 nM
  TGI: 4080 nM
HS 578T breast
  GI50: 999 nM
  TGI: 8550 nM
U251 CNS
  GI50: 800 nM
  TGI: 13200 nM
MOLT-4 leukemia
  GI50: 386 nM
  TGI: 7210 nM
NCI-H460 lung
  GI50: 3130 nM
  TGI: 10900 nM
OVCAR-8 ovarian
  GI50: 569 nM
  TGI: 16500 nM
SF-295 CNS
  GI50: 1990 nM
  TGI: 6400 nM
SF-539 CNS
  GI50: 316 nM
  TGI: 1150 nM
UACC-257 melanoma
  GI50: 1500 nM
  TGI: 3630 nM
SK-MEL-28 melanoma
  GI50: 613 nM
  TGI: 1900 nM
CCRF-CEM leukemia
  GI50: 308 nM
  TGI: 3200 nM
MDA-MB-468 breast
  GI50: 565 nM
  TGI: 1820 nM
IGROV1 ovarian
  GI50: 894 nM
  TGI: 5520 nM
NCI-H522 lung
  GI50: 169 nM
  TGI: 686 nM
SNB-75 CNS
  GI50: 1460 nM
  TGI: 4900 nM
MDA-MB-231 breast
  GI50: 769 nM
  TGI: 2390 nM
DU-145 prostate
  GI50: 3720 nM
  TGI: 14900 nM
OVCAR-4 ovarian
  GI50: 507 nM
  TGI: 1880 nM
MCF7 breast
  GI50: 442 nM
  TGI: 10800 nM
UACC-62 melanoma
  GI50: 501 nM
  TGI: 1870 nM
LOX IMVI melanoma
  GI50: 369 nM
  TGI: 2170 nM
